Like-named read-outs stand apart in the source and are kept apart here.
Details: rcm bond, 15-membered ring, Grubbs II (0.15 equiv), DCM, 5.0 mM, 40.0 °C, 2.0 h

Structure (SMILES)	ring closure, isolated yield (from C=CCCCCCC(NC(=O)OC(C)(C)C)C(=O)N1CC(Oc2nc(-c3cc(C)nn3C)nc3ccsc23)CC1C(=O)NC1(C(=O)OC)CC1C=C) [%]	ring closure, isolated yield (from C=CCCCCC[C@H](NC(=O)OC(C)(C)C)C(=O)N1C[C@H](Oc2nc(-c3ccccn3)nc3sccc23)C[C@H]1C(=O)N[C@]1(C(=O)OC)C[C@H]1C=C) [%]
COC(=O)[C@@]12C[C@H]1/C=C\CCCCC[C@H](NC(=O)OC(C)(C)C)C(=O)N1C[C@H](Oc3nc(-c4cc(C)nn4C)nc4ccsc34)C[C@H]1C(=O)N2	38	–
COC(=O)[C@@]12C[C@H]1/C=C\CCCCC[C@H](NC(=O)OC(C)(C)C)C(=O)N1C[C@H](Oc3nc(-c4ccccn4)nc4sccc34)C[C@H]1C(=O)N2	–	38
